In US20240398771A1, “TREATMENT OF SCLERODERMA AND RAYNAUD'S SYNDROME” (Aisa Pharma, Inc., priority 2023, published 2024):

Columns and labels:
participants with SSc-RP [1] = experiment: SHAQ Standard Disability Index; assay type: in vivo, human; conditions: Example 4, mITT Part A
Text: The standard, validated, patient reported outcome measures tool for SSc patients, the SHAQ, will be collected at the time points specified in the study schedules (FIG. 2 and FIG. 3A and/or FIG. 3B). To assess the participant's quality of life. The SHAQ includes a Raynaud's VAS that will also be reported separately.
The standard, validated, patient reported outcome measures tool for SSc patients, the Scleroderma Health Assessment Questionnaire (SHAQ), will be used to assess the participant qualify of life. Details are attached in the Appendix. The participant quality of life will be scored, and a disability index calculated for each questionnaire completed by the patient at Screening and each in-clinic visit. The absolute change in participant quality of life from baseline to the end of each dosing period will be calculated similar to frequency data as before.
The SHAQ is used to calculate a Disability Index to assess the participant qualify of life. The eight categories assessed by the Disability Index are 1) dressing and grooming, 2) arising, 3) eating, 4) walking, 5) hygiene, 6) reach, 7) grip, and 8) common daily activities. For each of these categories, patients report the amount of difficulty they have in performing two or three specific activities. […]

[2] = 10 mg, single oral dose, healthy volunteers; cited from earlier work
participants with SSc-RP [3] = experiment: Pain score (11-point Likert scale) recorded during weekly RP attacks; assay type: in vivo, human; conditions: Tadalafil 5 mg (n = 4); Raynaud's pain, Table G
Text: The relevant metrics measured by this tool daily are: • Study medication • SSc-RP symptoms (Reporting an attack including duration of attack) • Severity of the attack considering all symptoms of the attack e.g. tingling, numbness, pain, color changes (VAS 0-10 cm scale) • Participant's location at the time of the attack (inside home/outside home) • Selecting symptoms experienced during the attack (tingling, numbness, pain, color changes, other) • Pain rating during the attack (11-point Likert scale) • The RCS based on how much difficulty participants had with Raynaud's today, how many attacks the participant had, and how long they lasted. Participants will also be asked to consider how much pain, numbness, or other symptoms the Raynaud's caused in fingers (including painful sores), and how much the Raynaud's alone affected the use of hands today (VAS 0-10 cm scale).
The absolute change in highest pain score (11-point Likert scale) of weekly RP attacks from baseline to the end of each dosing period will be a secondary outcome variable. […] The variable will be calculated similar to frequency data as before.
The absolute change in average pain score (11-point Likert scale) of weekly RP attacks from baseline to the end of each Dosing Period will be a secondary outcome variable. […] The variable will be calculated similar to frequency data as before.

| SMILES | patient-reported SSc disease disability compared to placebo (participants with SSc-RP [1]) | CL/F, Mean [2] | Baseline Average Pain Score [Mean (SD)] (participants with SSc-RP [3]) |
| --- | --- | --- | --- |
| COCCOC(=O)C1=C(C)NC(C)=C(C(=O)OC/C=C/c2ccccc2)C1c1cccc([N+](=O)[O-])c1 (stereo not drawn) [Cilnidipine, 1,4-dihydro-2,6-dimethyl,4-(3-nitrophenyl)-3,5-pyridinedicarboxylic acid 2-methoxyethyl (2 E)-3-phenyl-2-propenyl ester] | may reduce | 304.7 L/h | – |
| CN1CC(=O)N2[C@H](c3ccc4c(c3)OCO4)c3[nH]c4ccccc4c3C[C@@H]2C1=O [Tadalafil] | – | – | 5.47 (3.586) |
